Patent publication US20070088080A1, “Gsk-3 inhibitors isolated from marine organisms” (NEUROPHARMA, S.A., priority 2003, published 2007)

Tests used:
[1] = molecular target: Recombinant human glycogen synthase kinase 3β (Homo sapiens, UniProt P49841); assay: GSK3β inhibition, radiometric kinase assay with GS-2 peptide and 33P-ATP
Protocol: Recombinant human glycogen synthase kinase 3B was assayed in MOPS 8 mM pH7.3, EDTA 0.2 mM, MgCl. 10 mM and sodium orthovanadate 0.25 mM in the presence of 62.5 μM of Phospho-Glycogen Synthase Peptide-2 (GS-2), 0.5 μCi γ-^33P-ATP and unlabelled ATP at a final concentration of 12.5 μM. The final assay volume was 20 μl. After incubation for 30 minutes at 30° C., 15 μl aliquots were spotted onto P81 phosphocellulose papers. Filters were washed four times for at least 10 minutes each and counted with 1.5 ml of scintillation cocktail in a scintillation counter.

[2] = test system: Tau phosphorylation [pS396] in human neuroblastoma SHSY5Y cells; assay: Inhibition of tau phosphorylation in SHSY5Y cells, Tau [pS396] sandwich ELISA; assay type: cell-based; conditions: at 200 μM, 24 h
Protocol: 1.1.2. Inhibition of Tau Phosphorylation Human neuroblastoma SHSY5Y cells were seeded in 96-well plates (25000 cells/well) in Dulbecco's modified Eagle's medium (DMEM) supplemented with 10% fetal calf serum. One day later, cells were treated with samples for 24 h at 37° C. After treatment, cultures were washed with phosphate-buffered saline and lysed for 30 min at 4° C. in 120 μl of extraction buffer (10 mM Tris-HCl, pH 7.4, 100 mM NaCl, 1 mM EDTA, 2 mM Na3VO4, 1% Triton X-100, 10% glycerol, 0.1% SDS, 0.5% Sodium deo.ycholate, 1 mM PMSF and a protease inhibitor cocktail.
The quantitative definition of phosphorylated human Tau was made taking 40 μl of the cell lysate and using a phosphorylation-specific antibody against Tau [pS396] in a sandwich ELISA. Tau phosphorylation was estimated by measuring of absorbance at 450 nm in a microtiter plate reader.

Recombinant human glycogen synthase kinase 3β, sequence (P49841 whole entry): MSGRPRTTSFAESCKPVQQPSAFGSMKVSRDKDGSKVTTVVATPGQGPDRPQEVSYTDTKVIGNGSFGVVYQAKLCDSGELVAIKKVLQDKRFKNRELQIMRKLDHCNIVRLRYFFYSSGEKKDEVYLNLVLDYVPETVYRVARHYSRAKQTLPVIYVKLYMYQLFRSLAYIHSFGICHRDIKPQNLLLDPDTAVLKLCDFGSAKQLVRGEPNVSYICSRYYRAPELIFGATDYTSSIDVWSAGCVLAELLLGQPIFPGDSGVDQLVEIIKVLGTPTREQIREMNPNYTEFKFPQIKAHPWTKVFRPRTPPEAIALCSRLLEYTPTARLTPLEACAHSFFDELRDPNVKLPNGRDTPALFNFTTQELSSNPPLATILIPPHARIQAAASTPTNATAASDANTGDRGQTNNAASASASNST

Row | SMILES | IC50 [1] [µM] | mechanism of inhibition of GSK3β ([1]; kinetic experiments varying both ATP and inhibitor concentrations, preliminary) | inhibition of tau phosphorylation, cellular assay [2]
1 | CC1=C(O)[C@@H](C/C(C)=C/CC[C@H](C)/C=C/C=C(\C)CCCc2ccoc2)OC1=O [Palinurin] | 4.5 | non As-competitive inhibitor | significant inhibition
2 | C/C(=C\C=C\C(C)CC/C=C(\C)CC1OC(=O)C(=O)C1=O)CCCc1ccoc1 (stereo not shown) [Tricantin] | – | – | significant inhibition
